CCCCCCCCCCCC(=O)O
Settings	solubility (mole fraction)
in 1-bromopropane, 280.6 K	0.0756
in 1-bromopropane, 283.8 K	0.0997
in 1-bromopropane, 287.8 K	0.15
in 1-bromopropane, 289.9 K	0.185
in 1-bromopropane, 293.1 K	0.239
in 1-bromopropane, 295.2 K	0.275
in 1-bromopropane, 298.8 K	0.34
in 1-bromopropane, 301.4 K	0.404
in 1-bromopropane, 304.3 K	0.473
in 1-bromopropane, 305.3 K	0.528
in 1-bromopropane, 307.3 K	0.573
in 1-bromopropane, 309.3 K	0.645
in 1-bromopropane, 310.5 K	0.709
in 1-bromopropane, 312.5 K	0.775
in 1-bromopropane, 313.8 K	0.859
in acetone, 286.6 K	0.0794
in acetone, 290.1 K	0.107
in acetone, 293.1 K	0.146
in acetone, 293.3 K	0.146
in acetone, 298 K	0.224
in acetone, 299.9 K	0.283
in acetone, 301.9 K	0.34
in acetone, 303.4 K	0.389
in acetone, 305.1 K	0.449
in acetone, 306.7 K	0.512
in acetone, 308.1 K	0.568
in acetone, 310.9 K	0.678
in acetone, 312 K	0.735
in acetone, 313 K	0.795
in acetone, 314.4 K	0.857
in acetone, 315.2 K	0.895
in isopropanol, 279.2 K	0.0797
in isopropanol, 282.7 K	0.104
in isopropanol, 285.9 K	0.13
in isopropanol, 289.1 K	0.164
in isopropanol, 293.1 K	0.22
in isopropanol, 297.1 K	0.283
in isopropanol, 301 K	0.361
in isopropanol, 303 K	0.409
in isopropanol, 304.4 K	0.458
in isopropanol, 306.1 K	0.513
in isopropanol, 308.1 K	0.568
in isopropanol, 309.8 K	0.648
in isopropanol, 311.2 K	0.712
in isopropanol, 312.6 K	0.777
in isopropanol, 314.1 K	0.842
in isopropanol, 314.9 K	0.896
in n-hexane, 279.9 K	0.0292
in n-hexane, 282.5 K	0.0408
in n-hexane, 283.6 K	0.0502
in n-hexane, 286.9 K	0.0736
in n-hexane, 289.7 K	0.108
in n-hexane, 291.7 K	0.134
in n-hexane, 293.9 K	0.171
in n-hexane, 296.4 K	0.223
in n-hexane, 297.5 K	0.252
in n-hexane, 300.1 K	0.322
in n-hexane, 301.8 K	0.38
in n-hexane, 303.8 K	0.442
in n-hexane, 305.9 K	0.519
in n-hexane, 308 K	0.593
in n-hexane, 311 K	0.711
in n-hexane, 312.5 K	0.777
in n-hexane, 314.2 K	0.858
in n-propanol, 287.1 K	0.13
in n-propanol, 289.6 K	0.153
in n-propanol, 292.8 K	0.192
in n-propanol, 295.1 K	0.225
in n-propanol, 297.9 K	0.275
in n-propanol, 299.9 K	0.318
in n-propanol, 301.5 K	0.353
in n-propanol, 303.5 K	0.406
in n-propanol, 304.7 K	0.44
in n-propanol, 306.5 K	0.509
in n-propanol, 307.4 K	0.541
in n-propanol, 308.7 K	0.597
in n-propanol, 309.9 K	0.644
in n-propanol, 310.7 K	0.69
in n-propanol, 312.1 K	0.749
in n-propanol, 313.4 K	0.818
in n-propanol, 314.2 K	0.873
in trichloroethylene, 282 K	0.144
in trichloroethylene, 283.1 K	0.157
in trichloroethylene, 284.6 K	0.171
in trichloroethylene, 288.4 K	0.216
in trichloroethylene, 291 K	0.258
in trichloroethylene, 293 K	0.295
in trichloroethylene, 296 K	0.337
in trichloroethylene, 298.2 K	0.389
in trichloroethylene, 301.2 K	0.441
in trichloroethylene, 303.3 K	0.516
in trichloroethylene, 306.7 K	0.591
in trichloroethylene, 308.6 K	0.666
in trichloroethylene, 310.5 K	0.725
in trichloroethylene, 312.5 K	0.806
in trichloroethylene, 313.5 K	0.855

Source: BigSolDB 2.1
